{"source": "patent US20200000825A1", "about": "“METHODS AND COMPOSITIONS FOR TREATING AND PREVENTING VIRAL INFECTIONS” (ENTERIN LABORATORIES, INC., priority 2009, published 2020)", "key": {"Human Oct 2": {"target": "T1, Human Oct 2 (Homo sapiens, UniProt O15244)", "T1 sequence (O15244 1-555)": "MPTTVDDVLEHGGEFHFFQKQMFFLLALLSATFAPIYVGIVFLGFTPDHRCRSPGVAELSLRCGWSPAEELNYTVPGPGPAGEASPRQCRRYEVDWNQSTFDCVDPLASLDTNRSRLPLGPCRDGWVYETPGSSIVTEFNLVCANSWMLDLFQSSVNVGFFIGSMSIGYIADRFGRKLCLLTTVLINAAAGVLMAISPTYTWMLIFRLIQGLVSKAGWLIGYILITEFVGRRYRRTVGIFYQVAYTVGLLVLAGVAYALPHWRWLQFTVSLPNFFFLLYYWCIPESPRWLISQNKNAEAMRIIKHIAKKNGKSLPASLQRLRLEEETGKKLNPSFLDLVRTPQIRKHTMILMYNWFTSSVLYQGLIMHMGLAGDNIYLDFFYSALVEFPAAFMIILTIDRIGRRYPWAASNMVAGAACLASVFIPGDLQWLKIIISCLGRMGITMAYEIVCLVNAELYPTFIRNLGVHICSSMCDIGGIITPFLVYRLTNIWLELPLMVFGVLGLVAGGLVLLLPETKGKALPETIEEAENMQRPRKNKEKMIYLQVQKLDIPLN", "experiment": "MPP uptake inhibition (transport competition) assay in CHO cells over-expressing a human Oct transporter", "type": "cell-based", "experimental": "(§1) This example determines whether squalamine is a substrate for the organic cation transporter (Oct). This determination employed a standard transport competition assay, described in the literature (Lips, Volk et al. 2005).\n(§2) Chinese hamster ovary cells, previously engineered to over-express a specific human Oct transporter were used in the assay. In this example, the effect of a specific concentration of an amino sterol is determined on the intracellular uptake of radiolabelled 1-methyl-4-phenylpyridine (MPP) (at 0.01 μM), measured after a 1-second exposure. […] IC50 refers to the concentration of squalamine or 1436 required to inhibit MPP uptake by 50%. Table 1 below describes the affinity of squalamine and Amino sterol 1436 for human organic cation transporters (Human Oct 1, Human Oct 2, and Human Oct 3) based upon the MPP uptake inhibition assay."}, "Human Oct 3": {"target": "T2, Human Oct 3 (Homo sapiens, UniProt O75751)", "T2 sequence (O75751 1-556)": "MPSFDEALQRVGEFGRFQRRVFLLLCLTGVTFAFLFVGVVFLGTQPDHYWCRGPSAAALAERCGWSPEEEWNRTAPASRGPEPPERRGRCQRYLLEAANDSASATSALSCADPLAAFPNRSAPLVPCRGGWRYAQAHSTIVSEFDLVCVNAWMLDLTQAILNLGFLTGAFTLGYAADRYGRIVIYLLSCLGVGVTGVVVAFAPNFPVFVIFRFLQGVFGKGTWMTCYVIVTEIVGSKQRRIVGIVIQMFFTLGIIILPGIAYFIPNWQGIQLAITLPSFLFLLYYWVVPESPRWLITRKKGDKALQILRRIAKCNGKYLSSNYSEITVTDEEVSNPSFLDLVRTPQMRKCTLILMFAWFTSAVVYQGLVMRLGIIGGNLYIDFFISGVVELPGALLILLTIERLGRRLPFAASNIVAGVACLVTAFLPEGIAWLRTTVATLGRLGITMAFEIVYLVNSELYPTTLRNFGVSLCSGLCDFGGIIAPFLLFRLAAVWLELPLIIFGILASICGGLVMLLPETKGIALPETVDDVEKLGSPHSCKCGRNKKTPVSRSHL", "experiment": "MPP uptake inhibition (transport competition) assay in CHO cells over-expressing a human Oct transporter", "type": "cell-based", "details": "100 μM aminosterol, radiolabelled MPP 0.01 μM, 1-second exposure", "experimental": "as §1, §2"}, "Human Oct 1": {"target": "T3, Human Oct 1 (Homo sapiens, UniProt O15245)", "T3 sequence (O15245 1-554)": "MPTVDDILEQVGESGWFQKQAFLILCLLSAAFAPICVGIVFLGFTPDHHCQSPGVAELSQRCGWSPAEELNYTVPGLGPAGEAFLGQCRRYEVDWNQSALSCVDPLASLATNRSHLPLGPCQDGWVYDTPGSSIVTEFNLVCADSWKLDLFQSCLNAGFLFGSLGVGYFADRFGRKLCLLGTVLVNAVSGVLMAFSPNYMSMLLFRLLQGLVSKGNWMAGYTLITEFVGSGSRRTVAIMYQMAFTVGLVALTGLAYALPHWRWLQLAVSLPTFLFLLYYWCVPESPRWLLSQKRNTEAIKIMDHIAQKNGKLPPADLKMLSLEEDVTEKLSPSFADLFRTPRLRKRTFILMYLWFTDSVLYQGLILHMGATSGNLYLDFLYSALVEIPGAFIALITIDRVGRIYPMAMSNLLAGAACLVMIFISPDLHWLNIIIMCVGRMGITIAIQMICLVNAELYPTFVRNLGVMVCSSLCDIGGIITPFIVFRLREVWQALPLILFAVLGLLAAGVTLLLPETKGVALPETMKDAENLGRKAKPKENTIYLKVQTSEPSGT", "experiment": "MPP uptake inhibition (transport competition) assay in CHO cells over-expressing a human Oct transporter", "type": "cell-based", "experimental": "as §1, §2"}, "[1]": {"details": "cited from earlier work"}, "HUVECs": {"test_system": "HUVECs", "experiment": "Thrombin induced stress fiber formation in endothelial cells", "type": "cell-based, human", "details": "aminosterol 20 μM, thrombin 20 ng/ml, 2 hours", "experimental": "The basic methods have been published (Williams, […] et al. 2001). HUVECs were grown on fibronectin-covered coverslips in EGM medium. […] Following a rinse, the cells were exposed to a 1:400 dilution of an FITC-goat antimurine antibody and 250 ng/ml TRITC phalloidin. The stained coverslips were visualized by fluorescence microscopy."}, "RAW264.7 cell line": {"test_system": "RAW264.7 cell line", "details": "squalamine 80 μM, 30 minutes; cited from earlier work"}, "[2]": {"test_system": "Eastern Equine Encephalitis Virus", "type": "in vivo, hamsters (Syrian golden)", "details": "10 mg/kg/day s.c."}, "[3]": {"test_system": "murine cytomegalovirus (MCMV)", "type": "in vivo, Balb/c mice"}, "[4]": {"details": "cited from earlier work", "remark": "listed apart in the source"}, "[5]": {"details": "100 μM aminosterol, radiolabelled MPP 0.01 μM, 1-second exposure"}, "[6]": {"details": "read-out: IC50 (concentration required to inhibit MPP uptake by 50%)"}, "[7]": {"details": "mouse, in vivo, ip, 10 mg/kg/day"}, "[8]": {"details": "500 mg/m(2)/day, 5-day continuous i.v. infusion"}}}
{"molecule": "CC(C)[C@@H](CC[C@@H](C)[C@H]1CC[C@H]2[C@@H]3[C@H](O)C[C@H]4C[C@@H](NCCCNCCCCN)CC[C@]4(C)[C@H]3CC[C@]12C)OS(=O)(=O)O", "note": "[Squalamine, squalamine]", "values": [{"measurement": "% Inhibition of MPP uptake caused by 100 μM", "setting": "Human Oct 2; [5]", "result": 40, "unit": "%"}, {"measurement": "IC50", "setting": "Human Oct 2; [6]", "result": 50, "unit": "µM"}, {"measurement": "% Inhibition of MPP uptake caused by 100 μM", "setting": "Human Oct 3", "result": 60, "unit": "%"}, {"measurement": "% Inhibition of MPP uptake caused by 100 μM", "setting": "Human Oct 1; [5]", "result": 25, "unit": "%"}, {"measurement": "IC50", "setting": "Human Oct 1; [6]", "result": 34, "unit": "µM"}, {"measurement": "Patients with dose-limiting toxicity (grade 3/4 arthralgia, myalgia, neutropenia)", "setting": "[1]; 400 mg/m(2)/day with paclitaxel and carboplatin", "result": "two of three"}, {"measurement": "Tolerability of the combination", "setting": "[1]; continuous daily for 5 days, with paclitaxel and carboplatin on day 1", "result": "well tolerated"}, {"measurement": "Disruption of thrombin induced stress fiber formation", "setting": "HUVECs", "result": "Yes"}, {"measurement": "Disruption of thrombin induced stress fiber formation", "setting": "HUVECs; listed as squalamine", "result": "disrupt thrombin induced stress fiber formation"}, {"measurement": "Localization of Lact-C2 probe", "setting": "RAW264.7 cell line", "result": "did not alter the localization"}, {"measurement": "Localization of R-pre probe", "setting": "RAW264.7 cell line", "result": "displaced from its residence on the plasma membrane"}, {"measurement": "Hamsters still alive at the end of treatment", "setting": "[2]; -24 h to 6 days after infection", "result": "6/10"}, {"measurement": "Plasma concentration of virus, lower than vehicle", "setting": "[2]; first 3 days post infection", "result": "about 100 fold"}, {"measurement": "Viral titers in lung versus control", "setting": "[3]; 10 mg/kg/day i.p.", "result": "trend toward reduction"}, {"measurement": "Viral titers versus control cohort", "setting": "[3]; day 7, spleen and liver, 10 mg/kg/day s.c. and i.p. groups", "result": "significantly lower"}, {"measurement": "Viral titers, difference between groups", "setting": "[3]; days 3 to 7, lungs and salivary glands", "result": "no significant differences"}, {"measurement": "Effect on viral growth", "setting": "[3]; [7]", "result": "little effect"}, {"measurement": "Reduction in viral growth", "setting": "[3]; [7]", "result": "greater than 10 fold"}, {"measurement": "Virus in liver and spleen", "setting": "[3]; [7]", "result": "undetectable"}, {"measurement": "Virus in liver and spleen versus controls", "setting": "[3]; mouse, in vivo, sc, 10 mg/kg/day", "result": "significantly reduced"}, {"measurement": "Mean clearance", "setting": "[4]; [8]", "result": "2.67 liters/h/m(2)"}, {"measurement": "Mean half-life", "setting": "[4]; [8]", "result": 9.46, "unit": "h"}, {"measurement": "Mean volume of distribution", "setting": "[4]; [8]", "result": "36.84 liters/m(2)"}, {"measurement": "Steady-state concentrations", "setting": "[4]; [8]", "result": 20.08, "unit": "micro g/ml"}, {"measurement": "Patients with dose-limiting grade 4 hyperbilirubinemia and grade 3 neurosensory changes", "setting": "[4]; 500 mg/m(2)/day", "result": "one of seven"}, {"measurement": "Tolerability", "setting": "[4]; 500 mg/m(2)/day", "result": "well tolerated"}, {"measurement": "Patients who developed grade 4 hyperbilirubinemia", "setting": "[4]; 700 mg/m(2)/day", "result": "two of three"}, {"measurement": "Dose dependence of pharmacokinetics", "setting": "[4]; 6 to 700 mg/m(2)/day", "result": "dose-proportional"}]}
